Test results from US20210308077A1, “COMBINATIONS INCLUDING BETA-ADRENORECEPTOR AGONISTS FOR TREATMENT OF PARKINSON`S DISEASE AND MOVEMENT DISORDERS” (The Brigham and Women`s Hospital, Inc., priority 2017, published 2021).

Assays:
[1] = tested on: NPCs carrying the SNCA triplication; assay: Resazurin viability assay in SNCA-triplication NPCs exposed to rotenone; format: cell-based, human; details: 20 μM rotenone, 20 μM clenbuterol
Description: Patient-derived NPCs carrying the familial SNCA triplication were generated as described previously (28). NPCs were seeded at […] in 96-well plates (Greiner Cellcoat μClear) for HTS plate reader analysis (Polarstar Omega, BMG). For experiments with toxicants and inhibitors, NPCs were cultured under the following conditions for 18 hours unless specified differently in the experiment procedures: Standard NPC growth medium, growth medium plus 20 μM rotenone (Sigma).
For the Plate Reader HTS, each experiment was conducted with 6 replicates per cell line and treatment regimen. NPCs were treated with 20 μM clenbuterol for four days. Signals from individual wells were acquired with integration of fluorescence signals over 1 second duration by bottom read in orbital mode (8-spot measurements with 2 mm radius). Data analysis was performed using BMG Mars software. For data analysis of individual experiments, the mean±SD was plotted using GraphPad7. Non-directional Student's t-test was used for direct statistical comparisons. […]
For the Resazurin assay for reduction potential by NADPH levels, NPCs were prepared as above and then loaded with 3 μM C12-Resazurin (Ex/Em: 563 nm/587 nm) (Life Technologies) in medium (see above), for 30 min at 37° C. […] Relative C12-Resazurin fluorescence intensities were normalized to Hoechst 33342 fluorescence.

H3K27Ac = assay: immunoblot with antibody against H3K27Ac in SK-N-MC cells; format: cell-based, human; details: vs vehicle-treated cells
Description: For western blot analysis, protein samples (20 μg) were run on a 4-20% gradient SDS-polyacrylamide gel (Biorad) and transferred onto a polyvinylidene fluoride (PVDF) membrane filter (0.2 μm; Biorad) using an electroblot apparatus (Bio-Rad, Hercules, Calif.) at 100V for 1 h in transfer buffer (25 mM Tris-HCl, 192 mM glycine, 0.1% SDS, 20% (v/v) methanol). The membrane was incubated in blocking solution (50 mM Tris-HCl, 200 mM NaCl, 1 mM MgCl2, pH 7.4) containing 5% non-fat dry milk powder for 1 hour at room temperature. The membrane was processed through sequential incubations with primary antibody overnight at 4° C. followed by incubation with horseradish peroxidase-conjugated species specific secondary antibody at 1:250 dilutions (Thermo Scientific Pierce). Immunoreactive proteins on the membrane were visualized using the SuperSignal™ West Pico Chemiluminescent kit (Thermo Scientific Pierce). Scanned western blots were analyzed using ImageJ software, version 1.47. Pictures were inverted and usually the background signal from an empty lane was subtracted to obtain specific signals for each lane.

CC(C)(C)NCC(O)c1cc(Cl)c(N)c(Cl)c1 (centres unmarked) [clenbuterol]
viability [1]: rescued viability | H3K27Ac levels (Western blotting) (H3K27Ac): decreased
